# Results published in patent US11583531B2, “Solid forms of a toll-like receptor modulator” (Gilead Sciences, Inc., priority 2019, dated 2023).
# Experiment: Dynamic vapor sorption (moisture sorption/desorption)
# Assay type: physicochemical
# Conditions: for solid form after the DVS experiment (form stability): post-DVS analysis, 5% to 95% RH cycle; for water absorbed (dynamic vapor sorption): up to 95% RH at 25° C.
# Protocol: Moisture sorption/desorption data were collected on a VTI SGA-100 Vapor Sorption Analyzer. NaCl and PVP were used as calibration standards. Samples were not dried prior to analysis. Sorption and desorption data were collected over a range from 5% to 95% RH at 10% RH increments under a nitrogen purge. The equilibrium criterion used for analysis was less than 0.0100% weight change in 5 minutes with a maximum equilibration time of 3 hours. Weight percentages reported in the data section are relative to the total sample mass introduced prior to equilibration at 5% RH as measured on the instrument.
solid form after the DVS experiment (form stability),water absorbed (dynamic vapor sorption),Structure (SMILES),further results
not have changed forms,about 0.89%,"CCCC[C@](C)(CO)Nc1nc(N)nc2cc(F)cnc12 [Compound I Form I, (R)-2-((2-amino-7-fluoropyrido[3,2-d]pyrimidin-4-yl)amino)-2-methylhexan-1-ol]",–
not have changed forms,about 2.3%,"CCCC[C@](C)(CO)Nc1nc(N)nc2cc(F)cnc12.O=C(O)/C=C/C(=O)O [Compound I Fumaric Acid, (R)-2-((2-amino-7-fluoropyrido[3,2-d]pyrimidin-4-yl)amino)-2-methylhexan-1-ol fumaric acid]",–
not have changed forms,about 0.11%,"CCCC[C@](C)(CO)Nc1nc(N)nc2cc(F)cnc12.O=C(O)/C=C\C(=O)O [Compound I Maleic Acid, (R)-2-((2-amino-7-fluoropyrido[3,2-d]pyrimidin-4-yl)amino)-2-methylhexan-1-ol maleic acid]",–
not have changed forms,about 1.5%,"CCCC[C@](C)(CO)Nc1nc(N)nc2cc(F)cnc12.O=C(O)C(O)C(O)C(=O)O [Compound I Tartaric Acid, (R)-2-((2-amino-7-fluoropyrido[3,2-d]pyrimidin-4-yl)amino)-2-methylhexan-1-ol tartaric acid]",–

# The remaining lines, values behind:
Structure (SMILES),solid form after the DVS experiment (form stability),water absorbed (dynamic vapor sorption),further results
"CCCC[C@](C)(CO)Nc1nc(N)nc2cc(F)cnc12.Cl [Compound I HCl Form I, (R)-2-((2-amino-7-fluoropyrido[3,2-d]pyrimidin-4-yl)amino)-2-methylhexan-1-ol hydrochloride]",–,–,"hygroscopicity by dynamic vapor sorption (5% to 95% RH): hygroscopic; further weight loss, desorption curve (below 65% RH down to 5% RH): No further weight % loss was observed; weight gain, sorption cycle (between 5% and 55% RH): approximately 0.6%; weight gain, sorption cycle (between 65% RH and 95% RH): approximately 28.1%; weight loss, desorption curve (between 85% and 65% RH): 1.8%; weight loss, desorption curve (from 95% to 85% RH): approximately 11.2%; solid form after the DVS experiment (form stability) (hydrochloride): composed of a new crystalline material, designated Compound I Hydrochloride Form II"
"CCCC[C@](C)(CO)Nc1nc(N)nc2cc(F)cnc12.Cl [Compound I HCl Form II, (R)-2-((2-amino-7-fluoropyrido[3,2-d]pyrimidin-4-yl)amino)-2-methylhexan-1-ol hydrochloride]",–,–,"weight gain, sorption cycle (from 5% to 95% RH): approximately 19.8%; solid form after the DVS experiment (form stability) (hydrochloride): not have changed forms"
"CCCC[C@](C)(CO)Nc1nc(N)nc2cc(F)cnc12.CS(=O)(=O)O [Compound I Methanesulfonic Acid, (R)-2-((2-amino-7-fluoropyrido[3,2-d]pyrimidin-4-yl)amino)-2-methylhexan-1-ol methanesulfonic acid]",not have changed forms,about 38%,–
